Data: patent US12351581B2, “Compounds for FGFR inhibition” (Cogent Biosciences, Inc., priority 2023, dated 2025)
pIC50: −log10 of the molar value. Where two headings read alike, the source gives them in different places.

Tests used:
FGFR2-WT = FGFR2-WT (Homo sapiens, UniProt P21802); test: Phosphorylated FGFR2-WT (pFGFR2-WT) cell assay, KATOIII cells; assay type: cell-based; settings: 1 hour incubation, phospho FGFR2 HTRF
Summary of the method: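 KATOIII cells treated 1 h at 37 °C with threefold compound dilutions (10 μM to 0.5 nM). Lysate phospho-FGFR2 (Tyr653/654) read by HTRF.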

FGFR2 = target: T1, FGFR2 (Homo sapiens, UniProt P21802); test: FGFR wild type enzyme assay (HTRF KinEASE-TK); assay type: biochemical; settings: ATP 2 uM
T1 construct: biochemical assays using purified intracellular domains of the respective isoforms; purchased Carna Bioscience 08-134
Summary of the method: (§1)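 Purified intracellular kinase domains, enzyme pre-incubated 30 min with compound (11-point 1:3 dilutions, typically 10,000-0.17 nM), then ATP plus 0.5 uM TK-peptide, 60 min at room temperature in HEPES pH7.5 with Mg2+/Mn2+. HTRF 665/615 ratio converted to percent of control; IC50 from four-parameter logistic fit.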

FGFR2 V564F = target: T2, FGFR2 V564F (Homo sapiens, UniProt P21802, V564F); test: FGFR mutant enzyme assay (HTRF KinEASE-TK); assay type: biochemical; settings: ATP 1.5 uM
T2 construct: biochemical assays using purified intracellular domains of the respective isoforms; purchased SignalChem Biotech F05-12FG
Summary of the method: as §1

FGFR2 N549H = target: T3, FGFR2 N549H (Homo sapiens, UniProt P21802, N549H); test: FGFR mutant enzyme assay (HTRF KinEASE-TK); assay type: biochemical; settings: ATP 0.9 uM
T3 construct: biochemical assays using purified intracellular domains of the respective isoforms; purchased Carna Bioscience 08-532
Summary of the method: as §1

FGFR2 V564I = target: T4, FGFR2 V564I (Homo sapiens, UniProt P21802, V564I); test: FGFR mutant enzyme assay (HTRF KinEASE-TK); assay type: biochemical; settings: ATP 0.4 uM
T4 construct: biochemical assays using purified intracellular domains of the respective isoforms; purchased Carna Bioscience 08-546
Summary of the method: as §1

[1] = compound table after the examples, read-out: Enz FGFR2

T2 sequence (P21802 399-821 V564F limits assumed): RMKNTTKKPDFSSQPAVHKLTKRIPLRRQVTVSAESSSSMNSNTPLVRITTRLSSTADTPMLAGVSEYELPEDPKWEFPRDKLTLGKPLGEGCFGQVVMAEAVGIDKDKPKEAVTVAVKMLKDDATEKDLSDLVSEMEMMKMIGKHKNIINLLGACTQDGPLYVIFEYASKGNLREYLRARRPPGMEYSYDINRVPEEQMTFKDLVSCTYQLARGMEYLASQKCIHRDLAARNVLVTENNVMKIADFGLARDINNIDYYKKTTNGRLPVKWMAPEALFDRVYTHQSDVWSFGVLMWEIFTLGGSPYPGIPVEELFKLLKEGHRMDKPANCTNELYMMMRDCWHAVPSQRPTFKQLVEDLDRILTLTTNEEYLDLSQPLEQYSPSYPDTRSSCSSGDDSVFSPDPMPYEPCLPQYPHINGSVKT
T4 sequence (P21802 399-821 V564I limits assumed): as the sequence (P21802 399-821 V564F limits assumed) above, with F166I counted along it
T3 sequence (P21802 399-821 N549H limits assumed): as the sequence (P21802 399-821 V564F limits assumed) above, with N151H, F166V counted along it
FGFR2-WT, sequence (P21802 430-767 limits assumed): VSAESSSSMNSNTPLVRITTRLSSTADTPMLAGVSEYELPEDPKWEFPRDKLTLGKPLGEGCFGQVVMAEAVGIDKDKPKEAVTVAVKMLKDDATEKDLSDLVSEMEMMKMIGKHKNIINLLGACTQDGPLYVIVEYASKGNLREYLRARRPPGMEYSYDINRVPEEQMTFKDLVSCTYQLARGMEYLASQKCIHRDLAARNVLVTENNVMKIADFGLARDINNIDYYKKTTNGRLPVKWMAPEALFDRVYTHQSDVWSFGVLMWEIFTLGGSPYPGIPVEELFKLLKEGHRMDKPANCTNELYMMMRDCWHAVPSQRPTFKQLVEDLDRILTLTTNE
T1 sequence (P21802 399-821 limits assumed): as the sequence (P21802 399-821 V564F limits assumed) above, with F166V counted along it

| SMILES | pIC50 (FGFR2-WT) | pIC50 (FGFR2; Table 3, read-out: FGFR2 Enz) | pIC50 (FGFR2; [1]) | pIC50 (FGFR2 V564F) | pIC50 (FGFR2 N549H) | pIC50 (FGFR2 V564I) |
| --- | --- | --- | --- | --- | --- | --- |
| C[C@@H](Oc1cc(-c2ccc(N3CC[C@H](O)[C@@H](O)C3)nc2)cn2ncc(C#N)c12)c1ccc(F)cn1 [Compound 63, 6-(6-((3S,4S)-3,4-dihydroxypiperidin-1-yl)pyridin-3-yl)-4-((R)-1-(5-fluoropyridin-2-yl)ethoxy)pyrazolo[1,5-a]pyridine-3-carbonitrile] | 8.48 | 9.52 | 9.52 | 9.00 | 9.52 | 9.00 |
| Cc1c(-c2cc(O[C@H](C)c3ccc(F)cn3)c3c(C#N)cnn3c2)cnn1C1CCN(C(=O)[C@@H](N)C(C)C)CC1 [Compound 44, 6-(1-(1-(L-valyl)piperidin-4-yl)-5-methyl-1H-pyrazol-4-yl)-4-((R)-1-(5-fluoropyridin-2-yl)ethoxy)pyrazolo[1,5-a]pyridine-3-carbonitrile] | 8.10 | 9.30 | 9.30 | 9.00 | 9.40 | 8.82 |
| Cc1c(-c2cc(O[C@H](C)c3ccc(F)cn3)c3c(C#N)cnn3c2)cnn1[C@H]1CCCN(C(=O)C(C)(C)O)C1 [Compound 17, 4-((R)-1-(5-fluoropyridin-2-yl)ethoxy)-6-(1-((S)-1-(2-hydroxy-2-methylpropanoyl)piperidin-3-yl)-5-methyl-1H-pyrazol-4-yl)pyrazolo[1,5-a]pyridine-3-carbonitrile] | 8.47 | 9.22 | 9.22 | 9.00 | 9.30 | 8.77 |
| Cc1nn(C2CCN(C)CC2)c(C)c1-c1cc(O[C@H](C)c2ccccn2)c2c(C#N)cnn2c1 [Compound 6, (R)-6-(3,5-dimethyl-1-(1-methylpiperidin-4-yl)-1H-pyrazol-4-yl)-4-(1-(pyridin-2-yl)ethoxy)pyrazolo[1,5-a]pyridine-3-carbonitrile] | 7.82 | 9.00 | 9.00 | 8.40 | 8.62 | 8.37 |
| Cc1c(-c2cc(O[C@H](C)c3ccc(F)cn3)c3c(C#N)cnn3c2)cnn1[C@H]1CCC[C@@H](O)C1 [Compound 71, 4-((R)-1-(5-fluoropyridin-2-yl)ethoxy)-6-(1-((1S,3R)-3-hydroxycyclohexyl)-5-methyl-1H-pyrazol-4-yl)pyrazolo[1,5-a]pyridine-3-carbonitrile] | 8.35 | 9.00 | 9.00 | 8.70 | 9.00 | 8.52 |
| Cc1c(-c2cc(O[C@H](C)c3ccc(F)cn3)c3c(C#N)cnn3c2)cnn1C1CCN(C[C@H](O)CO)CC1 [Compound 39, 6-(1-(1-((S)-2,3-dihydroxypropyl)piperidin-4-yl)-5-methyl-1H-pyrazol-4-yl)-4-((R)-1-(5-fluoropyridin-2-yl)ethoxy)pyrazolo[1,5-a]pyridine-3-carbonitrile] | 8.26 | 9.30 | 9.30 | 9.00 | 9.40 | 9.00 |
| Cc1c(-c2cc(O[C@H](C)c3ccc(F)cn3)c3c(C#N)cnn3c2)cnn1C1CCS(=O)(=O)CC1 [Compound 33, (R)-6-(1-(1,1-dioxidotetrahydro-2H-thiopyran-4-yl)-5-methyl-1H-pyrazol-4-yl)-4-(1-(5-fluoropyridin-2-yl)ethoxy)pyrazolo[1,5-a]pyridine-3-carbonitrile] | 8.22 | 9.00 | 9.00 | 8.70 | 9.15 | 8.52 |
| CC(=O)N[C@H]1CC[C@H](n2ncc(-c3cc(O[C@H](C)c4ccc(F)cn4)c4c(C#N)cnn4c3)c2C)CC1 [Compound 36, N-((1R,4r)-4-(4-(3-cyano-4-((R)-1-(5-fluoropyridin-2-yl)ethoxy)pyrazolo[1,5-a]pyridin-6-yl)-5-methyl-1H-pyrazol-1-yl)cyclohexyl)acetamide] | 8.40 | 9.40 | 9.40 | 8.82 | 9.30 | 8.70 |
| C[C@@H](Oc1cc(-c2ccc(N3CC[C@H](O)[C@H](O)C3)nc2)cn2ncc(C#N)c12)c1ccc(F)cn1 [Compound 26, 6-(6-((3R,4S)-3,4-dihydroxypiperidin-1-yl)pyridin-3-yl)-4-((R)-1-(5-fluoropyridin-2-yl)ethoxy)pyrazolo[1,5-a]pyridine-3-carbonitrile] | 8.40 | 9.30 | 9.30 | 9.00 | 9.52 | 9.00 |
| C[C@@H](Oc1cc(-c2cnn([C@H]3CCCNC3)c2N)cn2ncc(C#N)c12)c1ccc(F)cn1 [Compound 29, 6-(5-amino-1-((S)-piperidin-3-yl)-1H-pyrazol-4-yl)-4-((R)-1-(5-fluoropyridin-2-yl)ethoxy)pyrazolo[1,5-a]pyridine-3-carbonitrile] | 8.40 | 9.52 | 9.52 | 8.85 | 9.22 | 8.82 |
| Cc1c(-c2cc(O[C@H](C)c3ccc(F)cn3)c3c(C#N)cnn3c2)cnn1[C@H]1CCC[C@H](O)C1 [Compound 67, 4-((R)-1-(5-fluoropyridin-2-yl)ethoxy)-6-(1-((1S,3S)-3-hydroxycyclohexyl)-5-methyl-1H-pyrazol-4-yl)pyrazolo[1,5-a]pyridine-3-carbonitrile] | 8.40 | 9.40 | 9.40 | 9.00 | 9.40 | 8.85 |
| CC(=O)N1CCC[C@H](n2ncc(-c3cc(O[C@H](C)c4ccc(F)cn4)c4c(C#N)cnn4c3)c2C)C1 [Compound 13, 6-(1-((S)-1-acetylpiperidin-3-yl)-5-methyl-1H-pyrazol-4-yl)-4-((R)-1-(5-fluoropyridin-2-yl)ethoxy)pyrazolo[1,5-a]pyridine-3-carbonitrile] | 8.42 | 9.30 | 9.22 | 8.80 | 9.22 | 8.70 |
| C[C@@H]1CN(c2ccc(-c3cc(O[C@H](C)c4ccc(F)cn4)c4c(C#N)cnn4c3)cn2)C[C@H](C)O1 [Compound 16, 6-(6-((2S,6R)-2,6-dimethylmorpholino)pyridin-3-yl)-4-((R)-1-(5-fluoropyridin-2-yl)ethoxy)pyrazolo[1,5-a]pyridine-3-carbonitrile] | 8.10 | 9.30 | 9.30 | 9.10 | 9.52 | 9.00 |
| Cc1c(-c2cc(O[C@H](C)c3ccc(F)cn3)c3c(C#N)cnn3c2)cnn1[C@H]1CCCC[C@@H]1O [Compound 61, 4-((R)-1-(5-fluoropyridin-2-yl)ethoxy)-6-(1-((1S,2S)-2-hydroxycyclohexyl)-5-methyl-1H-pyrazol-4-yl)pyrazolo[1,5-a]pyridine-3-carbonitrile] | 8.52 | 9.52 | 9.52 | 9.00 | 9.40 | 8.82 |
| Cc1c(-c2cc(O[C@H](C)c3ccc(F)cn3)c3c(C#N)cnn3c2)cnn1[C@H]1CCCNC1 [Compound 12, 4-((R)-1-(5-fluoropyridin-2-yl)ethoxy)-6-(5-methyl-1-((S)-piperidin-3-yl)-1H-pyrazol-4-yl)pyrazolo[1,5-a]pyridine-3-carbonitrile] | 8.33 | 9.35 | 9.30 | 8.89 | 9.15 | 8.74 |
